Laboratory results reported in patent publication EP2769723A1, “Compounds for use in inhibiting HIV capsid assembly” (priority 2013, dated 2014).
pIC50, pKd: −log10 of the molar value. Like-named read-outs stand apart in the source and are kept apart here.

Tests used:
[1] = Solubility observations (DMSO, ITC buffer); assay type: physicochemical
[2] = biological target: HIV capsid protein C-terminal part (Human immunodeficiency virus type 1 group M subtype B, UniProt P12493); test: Isothermal titration calorimetry (ITC), C-terminal part; assay type: binding; conditions: dissociation constant
Procedure: Upper graph: raw experimental data. Lower graph: Fit (line) to the integrated heats (full circles) from each injection, corrected for the heat of dilution of CA ligand AMR-346.
(§1) The binding of CA ligand AMR-346 to the HIV capsid protein and its C-terminal part was monitared using a VP-ITC microcalorimeter (MicroCal Inc., Northampton, USA) at 25 °C. The solutions of reactants were prepared in 30 mM MES, pH 6.0 containing 10 % glycerol, 2 mM 2-mercaptoethanol, 2 % DMSO, and the exact concentrations of proteins were determined by amino acid analysis. […] The isothermal titration was used to estimate the ligand concentration and the binding parameters were calculated for situation when single AMR-346 molecule binds to monomer or dimer of protein, respectively. Typically, 9 µl aliquots of AMR-346 were injected stepwise into the sample cell containing 1.43 ml of 7 µM protein until saturation was achieved. The experiment was accompanied by a corresponding control experiment in which AMR-346 was injected into buffer alone. The association constants were determined by software developed by MicroCal.
The CA ligand AMR-346 binds to monomer of HIV capsid protein or its C-terminal part with dissociation constants of 230 nM or 50 nM, respectively. […]

wild type NL4.3 HIV-1 = test: Tissue culture infectivity test, TZM titration of supernatants from infected TZM cells; assay type: cell-based; conditions: Human immunodeficiency virus 1, TZM; for IC50: read-out: tissue culture IC50 (µM)
Procedure: Hits selected in the YFP-screen were further evaluated in the tissue culture experiments with cells infected with the wild type NL4.3 HIV-1. The virus for infection was obtained from co-culture of MT4 cells. The MT4 cells co-culture was synchronized for one week and then used for the infection of fresh MT 4 cells. 48 hrs post-infection was the culture supernatant harvested, cleared by the filtration through […] filter and stored in -80 °C in 1 ml aliquots. Amount of virus was quantified by enzyme-linked immuno sorbent assay (ELISA) with antibodies against HIV-1 CA (3 ng of CA/ml) and blue cell assay (1x10^5 IU/ml), which gives 3 x 10^4 IU/ng of CA.
For compounds testing the TZM cells were seeded on 96-well plate in the density 5 x 10^3 cells per well. The culture media was aspirated approx. 16 hrs later and cells were infected by the wild type NLA.3 HIV-1 by addition of 50J..il of prepared virus stock diluted with 50 µl of complete DMEM. The compounds were added twice to ensure that there are not any preassembled viruses present at the time of their addition. Compounds were first added 8 hrs post-infection and then 24 hrs later. In both cases the old culture media were replaced by 100 µl of fresh complete DMEM prior to the compounds addition. Different compounds concentrations were tested, but the DMSO concentration never exceeded 1 % DMSO. As controls were used cells treated only with 1 % DMSO and cells treated with 0,1 µM Lopinavir (HIV-1 protease inhibitor). Supernatant was harvested 24 hrs after the second compound addition, i.e. 56 hrs post-infection. Harvested supernatants were immediately titrated on the fresh TZM cells in aim to perform the infectivity assay (TZM titration), or inactivated by addition of Triton X-100 to the final concentration 0.025 % for further ELISA analysis.
TZM titration was performed on the cells seeded day before on 96-well plate in the density 5 x 10^3 cells per well. The analysis was performed for each compound concentration at three different dilutions and in duplicates. The culture media was aspired and cells were lysed 48 hrs post-infection by addition of 100 µl of SteadyGlo luciferase substrate (Promega) diluted 1 : 1 by complete DMEM. The luminescence signal was measured on Luminoskan Ascent (Thermo Labsystems) after the transfer of 80 µl of lysate to the flat bottom white polystyrene assay plates (Costar).

HIV capsid protein = HIV capsid protein (Human immunodeficiency virus type 1 group M subtype B, UniProt P12493); test: Isothermal titration calorimetry (ITC), whole capsid protein; assay type: binding; conditions: dissociation constant
Procedure: as §1
The CA ligand AMR-346 binds to monomer of HIV capsid protein or its C-terminal part with dissociation constants of 230 nM or 50 nM, respectively. For the binding mode of single molecule AMR-346 toward dimeric capsid protein and its C-terminal part, the dissociation constants were estimated to be 120 nM and 26 nM, respectively. Table 4: Synthesized and tested compounds

CA = biological target: T1, CA (Human immunodeficiency virus type 1 group M subtype B, UniProt P12493); test: ALPHA screen (AlphaScreen): inhibition of CAI binding to CA; design: species or system HIV-1
T1 construct: a fusion protein of CA with glutathione-S-transferase (CA-GST)
Procedure: The AlphaScreen experiments are performed using Perkin Elmer Enspire plate reader in white 96-well ProxiPlates and PBS supplemented with 0.05% Tween20, 2mM DTT, 2% DMSO. First, Streptavidin-coated Donor beads are used to capture the CAI-biotin peptide. In the other solution, a fusion protein of CA with glutathione-S-transferase (CA-GST) is mixed with GSH Acceptor beads. Both mixtures were incubated and then mixed together. To test the ability of prepared organic compounds to inhibit the CAI binding to CA, they are screened at concentrations between 0.5-100 µM and IC50 values are calculated from the influenced signals.
Upon illumination by laser at 680 nm, Donor beads containing the photosensitizer phthalocyanine convert ambient oxygen to an excited form of singlet oxygen ^1O2. Singlet oxygen can within its half-life of ~ 4 µs diffuse approximately 200 nm in solution. If an Acceptor bead is within that proximity, which is mostly upon CA:CAI interaction, energy is transferred from the singlet oxygen to thioxene derivates within the Acceptor and signal at 520 - 620 nm is emitted.

TZM cells = test: in vitro; assay type: cell-based; conditions: Table 4; non-cytotoxic when values higher than 80 % of 1 % DMSO treated cells
Procedure: (§2) Cytotoxicity of selected hits tested in the assay with NL4.3 infected cells was determined by MTT test. TZM cells were seeded on the previous day on 96-well plate in the density 5 x 10^3 cells per well. The tested compounds were added in different concentrations, but the DMSO concentration never exceeded 1 % DMSO. As controls were used cells treated only with 1 % DMSO (non-toxic concentration) and cells treated with 5 % DMSO (toxic concentration). 20 µl of the CellTiter 96 Aqueous One substrate (Promega) was added to the 100 µl of culture media 48 hrs after the compounds addition and the color development was quantified 4 hrs later by measuring the absorbance at 490 nm on Saphire reader. Compounds were consider non-cytotoxic (at given concentrations) when the measured values were higher than 80 % of the value of 1 % DMSO treated cells.

in vitro = assay type: cell-based; conditions: human
Procedure: as §2

[3] = Table 4, non-cytotoxic when values higher than 80 % of 1 % DMSO treated cells, read-out: toxicity LC50
[4] = Table 5, MTT cytotoxicity test, read-out: CC50
[5] = CAI-biotin peptide / CA-GST, compounds screened at 0.5-100 µM, read-out: α screen IC50

SMILES | IC50 (wild type NL4.3 HIV-1) [µM] | toxicity LC50 (µM) (TZM cells) | pIC50 (wild type NL4.3 HIV-1) | other results
c1cncc(-c2nc(SCCSc3nc(-c4cccnc4)nc4ccccc34)c3ccccc3n2)c1 [OSR-291] |  |  |  | solubility in DMSO [1]: insoluble in DMSO
CCOC(=O)c1ccc(Nc2nc(-c3ccncc3)nc3ccccc23)cc1 [AMR.346] | ~15 | non-toxic |  | pKd ([2]; one ligand binds to monomer of C-terminal part, 25 °C, pH 6.0): 7.30; pKd ([2]; single molecule binds to dimeric C-terminal part, estimated): 7.59; solubility ([1]; 30 mM MES, pH 6.0, 10 % glycerol, 2 % DMSO, concentration required for ITC): low solubility; pKd (HIV capsid protein; one ligand binds to monomer of HIV capsid protein, 25 °C, pH 6.0): 6.64; pKd (HIV capsid protein; single molecule binds to dimeric capsid protein, estimated): 6.92; pIC50 (CA): 5.14
CNc1ccc([N+](=O)[O-])cc1Nc1nc(-c2ccc(C(=O)c3ccccc3)cc2)nc2ccccc12 [OSR-77] | ~3 |  | 5.70 | CC50 at 48 h (in vitro; [3]): ~7 µM; CC50 at 48 h (in vitro; [4]): 7.1 µM
CN(C)c1nc(-c2cccnc2)nc2ccc(OS(C)(=O)=O)cc12 [OSR-302] |  |  |  | CC50 at 48 h (in vitro; [3]): ~7 µM
OCc1ccc(Nc2nc(-c3cccnc3)nc3ccccc23)cc1 [KP-236] | ~10 |  |  | CC50 at 48 h (in vitro; [3]): ~10 µM
FC(F)(F)c1cccc(Nc2nc(-c3cccnc3)nc3cc(C(F)(F)F)ccc23)c1 [OSR-201] | ~8 | non-toxic | 5.07 | CC50 at 48 h (in vitro; [4]): 25 µM
NC(=O)c1c(F)cccc1Nc1nc(-c2ccccn2)nc2ccccc12 [OSR-85] | ~8 | non toxic | 5.19 | CC50 at 48 h (in vitro; [4]): 125 µM
Fc1cc(Nc2nc(-c3cccnc3)nc3ccccc23)cc(F)c1F [OSR-199] | ~5 | non-toxic | 5.29 | CC50 at 48 h (in vitro; [4]): 100 µM
c1cncc(-c2nc(Nc3ccc4[nH]nnc4c3)c3ccccc3n2)c1 [AMR.325] |  |  | 5.16 | pIC50 (CA; [5]): < 3.70; CC50 at 48 h (in vitro; tzm cells, Table 5, MTT cytotoxicity test, read-out: CC50): 200 µM
CNc1ccc([N+](=O)[O-])cc1Nc1nc(-c2cccnc2)nc2ccccc12 [AMR.494] |  |  | 5.74 | pIC50 (CA; [5]): 6.05; CC50 at 48 h (in vitro; [3]): ~15 µM; CC50 at 48 h (in vitro; [4]): 16.1 µM
O=[N+]([O-])c1ccc(F)c(Nc2nc(-c3cccnc3)nc3cc(C(F)(F)F)ccc23)c1 [OSR-178] | ~5 |  | 5.82 | CC50 at 48 h (in vitro; [3]): ~11 µM; CC50 at 48 h (in vitro; [4]): 5 µM
Clc1ccc(Nc2nc(-c3cccnc3)nc3ccccc23)c(Cl)c1Cl [KP-260] | > 10 | non-toxic |  | 
O=[N+]([O-])c1ccc(Sc2nc(-c3cccnc3)nc3ccccc23)c(F)c1 [KP-76] | ~5 | non-toxic |  | 
Fc1cc(Nc2nc(-c3ccc(I)cc3)nc3ccccc23)cc(F)c1F [KP-161] | ~10 | non-toxic |  | 
O=C(c1ccccc1)c1ccc(Nc2nc(-c3ccncc3)nc3ccccc23)cc1 [OSR-48] | > 25 | non toxic |  | 
Clc1cc(Nc2nc(-c3cccnc3)nc3ccccc23)cc(Cl)c1Cl [KP-253] |  |  |  | solubility in DMSO [1]: insoluble in DMSO
C=Cc1ccc2nc(-c3cccnc3)nc(Nc3cc(F)c(F)c(F)c3)c2c1 [KP-130] | > 25 | non-toxic |  | 
Fc1cc(F)c(Nc2nc(-c3cccnc3)nc3ccccc23)cc1F [OSR-299] | ~10 | non-toxic |  | 
Fc1cc(Nc2nc(Cl)nc3ccccc23)cc(F)c1F [KP-187] | > 10 | non-toxic |  | 
Cl.O=C(O)c1cc(O)ccc1Nc1nc(-c2cccnc2)nc2ccccc12 [5-hydroxy-2-(2-(pyridin-3-yl)quinazolin-4-ylamino)benzoic acid hydrochloride] |  |  |  | solubility in DMSO [1]: insolubility in DMSO
CC(C)Nc1nc(-c2cccnc2)nc2ccccc12 [OSR-295] | > 10 | non-toxic |  | 
O=[N+]([O-])c1ccc(Nc2nc(-c3cccnc3)nc3ccccc23)c(I)c1 [KP-108] | ~1.5 |  |  | CC50 at 48 h (in vitro; [3]): ~20 µM
COc1cc2c(Nc3ccc([N+](=O)[O-])cc3F)nc(-c3cccnc3)nc2c(OC)c1OC [KP-66] | ~5 | non-toxic |  | 
